Earlier results as cited in patent publication US4375464A, “Antibiotic AY24,668 and process of preparation” (Ayerst, McKenna & Harrison Inc., priority 1981, dated 1983).

Experiments:
[1] = test system: Candida albicans
[2] = R. R. Martel et al., Can. J. Physiol., 55, 48 (1977)
[3] = test system: Candida albicans; remark: listed apart in the source

In the case of `CO[C@H]1C[C@@H]2CC[C@@H](C)[C@@](O)(O2)C(=O)C(=O)N2CCCC[C@H]2C(=O)O[C@H]([C@H](C)C[C@@H]2CC[C@@H](O)[C@H](OC)C2)CC(=O)[C@H](C)/C=C(\C)[C@@H](O)[C@@H](OC)C(=O)[C@H](C)C[C@H](C)/C=C/C=C/C=C/1C` [rapamycin], the “effectiveness against Candida albicans in vitro” value [1] is given as “particularly effective”, the immunosuppressant activity [2] is given as “immunosuppressant activity” and the “effectiveness against Candida albicans in vivo” value [3] is given as “particularly effective”.
